Experimental data: patent US9873693B2 (Sunesis Pharmaceuticals, Inc., priority 2006, dated 2018)
Read-outs that look alike come from different tables or passages of the source.

How the values were obtained:
phosphorylated PDK1 = phosphorylated PDK1 (Homo sapiens (Human), UniProt O15530); assay: PDK1 kinase assay (coupled PDK1/AKT/FAM-crosstide, IMAP); assay type: biochemical; conditions: 0.5 nM phosphorylated PDK1, 24 μM ATP; read-out: Inhibition of phospo-PDK1 in vitro IC50
Phospho-T308 Akt = Phospho-T308 Akt detection using immunoblot (western blot) in PC-3 cells; assay type: cell-based; conditions: for Reduction of Cellular Levels of Akt p308 By Western: 2 hour incubation, concentration not given in Table 2; for inhibition at 5 µM: Homo sapiens, read-out: Percent Inhibition of phospho-Akt (308) By Western
Experimental: A Phospho-T308 Akt detection using immunoblot (western blot) analysis was performed as described below.
PC-3 prostate cells were plated in a 6 well plate in F12K media (Invitrogen, Carlsbad, Calif.) plus 10% FBS (Invitrogen) and placed in incubator overnight. The stock of compound A was a 50 mM solution in DMSO. 1000× dilutions of the compound were made in DMSO. The 1000× dilutions include, 35 mM, 25 mM, 15 mM, 10 mM, 7 mM, 5 mM, and 1 mM. 1 μl of the 1000× dilutions was added to 1 ml F12K media without serum for final concentrations of […]. 1 μl of DMSO was added to 1 ml media with no serum for a control. The 1 ml DMSO or compound plus media was then added to the cells. Following a 2 hour incubation at 37° C., cells were harvested and washed in PBS and subjected to centrifugation at 3,300 rpm for 5 minutes. Cells were lysed in 100 μl of Bio Rad Bioplex buffer containing protease inhibitors (BioRad, Hercules, Calif.) for 30 minutes on ice followed by centrifugation at 13,000 rpm for 5 minutes. The protein content of the supernatant was assayed using DC Protein Assay (BioRad). 25 μl of protein was added to 4× sample buffer (Invitrogen) and sample reducer (Invitrogen) and run on a 4-12% NuPage gel (Invitrogen). Proteins were then transferred to nitrocellulose (Invitrogen). The membrane was blocked in Tris-buffered saline (Sigma, St. Louis, Mo.) plus 0.1% Tween (Sigma) (T-TBS) plus 5% blotting grade milk (BioRad) for 60 minutes. Membranes were then incubated in T-TBS plus 5% BSA (Sigma) plus 1:1000 of anti-phospho akt (Thr 308) (Cell Signaling Technology, Beverly, Mass.) overnight at 4° C. Membranes were washed in T-TBS then incubated in 1:2000 of anti-rabbit-HRP (Cell Signaling) in TTBS plus 5% milk. Membranes were washed again and proteins were visualized with Super Signal West Pico (Pierce, Rockford, Ill.) and using Kodak BioMax MR film (Kodak, Rochester, N.Y.).
Phospho-akt 308 protein bands on the film were quantified using densitometry. An Alpha Imager (Alpha Innotech Corp, San Leandro, Calif.) using AlphaEase FC software version 4.1.0 (Alpha Innotech Corp.) was used to quantitate protein bands. Briefly, a rectangle of equal size was placed around each protein band as well as a background spot on the film. The densitometry values (IDV=Integrated Density Value) obtained for the background spot was then subtracted from the values obtained for the protein bands. These values were used to obtain an EC50 value using non-linear regression analysis in GraphPad Prism Version 4.00 (Graph Pad Prism, San Diego, Calif.). Percent decrease in expression of phosphoh-akt 308 were also measured specifically at 2 μM and 5 μM levels of inhibitor.

phospho-akt (Thr308) = phospho-akt (Thr308) MSD ELISA in PC-3 cells; assay type: cell-based; conditions: Homo sapiens, PC-3 cells; for inhibition at 1 µM / inhibition at 10 µM: read-out: Percent Inhibition of phospho-Akt (308) By MSD ELISA; for EC50: PC-3, 2 h, 2 hours, no serum
How it was run: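 Read-out is MSD electrochemiluminescence after lysate capture overnight at 4 degrees and 1 hr RT detection-antibody step. Before lysis, overnight-plated PC-3 cells received three-fold serial dilutions of inhibitor in serum-free medium, with DMSO-only high controls.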

dephosphorylated PDK1 = dephosphorylated PDK1 (Homo sapiens (Human), UniProt O15530); assay: PDK1 kinase assay (coupled PDK1/AKT/FAM-crosstide, IMAP); assay type: biochemical; conditions: 25 nM un-phosphorylated PDK1, 24 μM ATP; read-out: Inhibition of dephospo-PDK1 in vitro IC50
dephosphorylated PDK1, sequence (O15530 51-360): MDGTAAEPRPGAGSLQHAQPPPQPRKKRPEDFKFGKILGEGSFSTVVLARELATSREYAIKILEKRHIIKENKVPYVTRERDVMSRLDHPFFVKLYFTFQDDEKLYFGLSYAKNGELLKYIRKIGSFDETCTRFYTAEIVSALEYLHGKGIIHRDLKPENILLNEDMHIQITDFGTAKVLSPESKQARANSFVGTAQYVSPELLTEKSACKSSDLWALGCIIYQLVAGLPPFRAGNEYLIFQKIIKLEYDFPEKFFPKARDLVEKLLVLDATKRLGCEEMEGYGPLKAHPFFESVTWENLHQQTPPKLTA
How it was run: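 The FAM-crosstide phosphorylation readout was IMAP polarization (ex 485/em 530 nm, 2 h binding), with 4-parameter fits of ΔmP data. The reaction ran 30 min at 25 °C with 24 μM ATP, and contained 25 nM phosphatase-treated PDK1 (aa 51–360) plus 30 nM unphosphorylated AKT2-PIFtide and 100 nM substrate. Buffer was 10 mM Tris pH 7.2, 10 mM MgCl2, 0.01% Triton X-100 and 1 mM DTT.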

[1] = read-out: Inhibition of P308 Akt in cells using MSD EC50

phosphorylated PDK1, sequence (O15530 51-360): as above

SMILES | IC50 (phosphorylated PDK1) [nM] | Reduction of Cellular Levels of Akt p308 By Western (Phospho-T308 Akt) | inhibition at 5 µM (Phospho-T308 Akt) [%] | inhibition at 1 µM (phospho-akt (Thr308)) [%] | inhibition at 10 µM (phospho-akt (Thr308)) [%] | IC50 (dephosphorylated PDK1) [nM] | EC50 (phospho-akt (Thr308); [1]) [µM] | EC50 (phospho-akt (Thr308); read-out: Reduction of Cellular Levels of Akt p308 By MSD ELISA (EC50 μM)) [µM]
O=C(NCc1cnc(-c2c[nH]c3ncccc23)s1)c1cccn(Cc2ccc(F)c(F)c2)c1=O [Cpd 134] | < 500 | bbb (inhibition of more than 75%) | > 75 | < 25 | > 75 | < 500 | – | –
COC(=O)c1cc(-c2cccc(CNC(=O)c3cccn(Cc4ccc(F)c(F)c4)c3=O)c2)c[nH]1 [Cpd 230] | < 500 | b (inhibition of less 25%) | < 25 | 25 to 75 | > 75 | < 500 | – | –
NC(=O)C[C@@H](NC(=O)c1cccn(Cc2ccc(F)c(F)c2)c1=O)c1ncc(-c2c[nH]c3ncccc23)o1 [Cpd 306] | < 500 | bbb (inhibition of more than 75%) | > 75 | < 25 | 25 to 75 | < 500 | – | –
NC[C@@H](NC(=O)c1cccn(Cc2ccc(F)c(F)c2)c1=O)c1nnc(-c2c[nH]c3ncccc23)o1 [Cpd 283] | < 500 | bb (inhibition of from 25% to 75%) | 25 to 75 | – | – | < 500 | 1 to 5 | 1 to 5
O=C(O)C[C@@H](NC(=O)c1cccn(Cc2ccc(F)c(F)c2)c1=O)c1nnc(-c2c[nH]c3ncccc23)o1 [Cpd 287] | < 500 | bb (inhibition of from 25% to 75%) | 25 to 75 | < 25 | < 25 | < 500 | – | –
NC[C@@H](NC(=O)c1cccn(Cc2ccc(F)c(F)c2)c1=O)c1nc(-c2c[nH]c3ncccc23)cs1 [Cpd 296] | < 500 | bb (inhibition of from 25% to 75%) | 25 to 75 | < 25 | > 75 | < 500 | 1 to 5 | –
O=C(NCc1noc(-c2c[nH]c3ncccc23)n1)c1cc(Cl)cn(Cc2cccc(F)c2)c1=O [Cpd 310] | < 500 | bb (inhibition of from 25% to 75%) | 25 to 75 | 25 to 75 | 25 to 75 | < 500 | 1 to 5 | –
CC(C)(C)OC(=O)C[C@@H](NC(=O)c1cccn(Cc2ccc(F)c(F)c2)c1=O)c1nnc(-c2c[nH]c3ncccc23)o1 [Cpd 286] | < 500 | bbb (inhibition of more than 75%) | > 75 | 25 to 75 | > 75 | < 500 | < 1 | –
O=C(NCc1noc(-c2c[nH]c3ncccc23)n1)c1cccn(Cc2cccc(F)c2)c1=O [Cpd 302] | < 500 | bbb (inhibition of more than 75%) | > 75 | < 25 | 25 to 75 | < 500 | – | –
CNC(=O)C[C@@H](NC(=O)c1cccn(Cc2ccc(F)c(F)c2)c1=O)c1ncc(-c2c[nH]c3ncccc23)s1 [Cpd 137] | < 500 | bbb (inhibition of more than 75%) | > 75 | < 25 | > 75 | < 500 | > 5 | –
O=C(NCc1noc(-c2c[nH]c3ncccc23)n1)c1cccn(Cc2ccc(Cl)c(F)c2)c1=O [Cpd 304] | < 500 | bbb (inhibition of more than 75%) | > 75 | < 25 | > 75 | < 500 | 1 to 5 | –
O=C(NCc1noc(-c2c[nH]c3ncccc23)n1)c1cccn(Cc2ccc(F)cc2)c1=O [Cpd 303] | < 500 | bbb (inhibition of more than 75%) | > 75 | < 25 | < 25 | < 500 | – | –
O=C(C[C@@H](NC(=O)c1cccn(Cc2ccc(F)c(F)c2)c1=O)c1nnc(-c2c[nH]c3ncccc23)o1)NCCN1CCCC1 [Cpd 298] | < 500 | b (inhibition of less 25%) | < 25 | < 25 | < 25 | < 500 | – | –
C[C@@H](c1ccc(Cl)cc1)n1cccc(C(=O)NCc2noc(-c3c[nH]c4ncccc34)n2)c1=O [Cpd 300] | < 500 | bbb (inhibition of more than 75%) | > 75 | 25 to 75 | > 75 | < 500 | 1 to 5 | –
CN(C)C(=O)C[C@@H](NC(=O)c1cccn(Cc2ccc(F)c(F)c2)c1=O)c1nnc(-c2c[nH]c3ncccc23)o1 [Cpd 290] | 500 to 10000 | bb (inhibition of from 25% to 75%) | 25 to 75 | < 25 | 25 to 75 | < 500 | – | –
O=C(Nc1c(F)cccc1Oc1ccc2[nH]c(=O)[nH]c2c1)c1cccn(Cc2ccc(F)c(F)c2)c1=O [Cpd 133] | < 500 | bbb (inhibition of more than 75%) | > 75 | < 25 | 25 to 75 | < 500 | – | –
O=C(O)CC[C@@H](NC(=O)c1cccn(Cc2ccc(F)c(F)c2)c1=O)c1nc(-c2c[nH]c3ncccc23)co1 [Cpd 307] | < 500 | b (inhibition of less 25%) | < 25 | < 25 | < 25 | < 500 | – | –
